Measurements reported in patent US20170216360A1, “METHODS AND COMPOSITIONS FOR IMPROVING HOMING OF CELLS INCLUDING MESENCHYMAL STEM CELLS” (SANOFI, priority 2014, published 2017).
Counter-ions that a name gives are not always drawn.

How the values were obtained:
[1] = system: CD11a surface expression on MSCs; assay: CyTOF analysis of CD11a expression levels on MSCs; assay type: cell-based, human
Procedure: To further confirm the screening results, the surface expression of CD11a was also examined by Time of Flight Mass Cytometry (CyTOF2, DVS Sciences) (Newell et al., 2013, Nat Biotechnol. 31(7):623-9). MSCs were treated with Ro-31-8425 as indicated and sample preparation was performed per manufacturer's instructions with slight modifications. Briefly, the harvested MSC pellet was first resuspended with Intercalator-103Rh solution (1 μM) in PBS to identify viable cells, then washed twice with MaxPar cell staining buffer and stained with 100 μL antibody cocktail (human Nd142-CD11a and Tb159-CD90, 1:200 dilution in staining buffer) for 30 min at room temperature. After two washes, the cells were further stained with 125 nM MaxPar Intercalator-Ir in MaxPar Fix and Perm buffer for 1-2 h with gentle shaking. Finally the fixed cells were thoroughly washed with ultrapure H2O 2O for three times (1000 g, 5 min each), resuspended in 300 μL H2O and filtered through a 40 μm Falcon cell strainer (Corning) prior to CyTOF data acquisition. The CyTOF data was analyzed with Cytobank on-line data analysis platform (website www cytobank.org).

MSC secretome = assay: Secretomic analysis of small molecule-primed MSCs (Bio-plex immunoassays); assay type: cell-based, human

Cn1cc(C2=C(c3c4n(c5ccccc35)CCC(CN)C4)C(=O)NC2=O)c2ccccc21 (centres unmarked) [Compound 1929, 3-(8-aminomethyl-6,7,8,9-tetrahydro-pyrido[1,2-a]indol-10-yl)-4-(1-methyl-1H-indol-3-yl)-pyrrole-2,5-dione hydrochloride]
Time over which the percentage of CD11a-positive MSCs was stable ([1]; 3 μM for 24 h): at least 4 days | Percentage of CD11a-positive MSCs ([1]; 0.1, 1, 3 and 10 μM for 24 hours): dose-dependent increase | Number of analytes with statistically significant changes, out of 48 secreted factors (MSC secretome): 3 | Mean of [IFN-g] (MSC secretome; 0.3 μM, 24 h, MSC donor 318006): 11.0 pg/mL | Mean of [IL-1ra] (MSC secretome; 0.3 μM, 24 h, MSC donor 318006): 16.5 pg/mL | Mean of [IL-6] (MSC secretome; 0.3 μM, 24 h, MSC donor 318006): 451.3 pg/mL | Mean of [IL-8] (MSC secretome; 0.3 μM, 24 h, MSC donor 318006): 26.9 pg/mL | Mean of [IL-12p70] (MSC secretome; 0.3 μM, 24 h, MSC donor 318006): 13.3 pg/mL | Mean of [LIF] (MSC secretome; 0.3 μM, 24 h, MSC donor 318006): 14.2 pg/mL | Mean of [MCP-1] (MSC secretome; 0.3 μM, 24 h, MSC donor 318006): 26.4 pg/mL | Mean of [MIF] (MSC secretome; 0.3 μM, 24 h, MSC donor 318006): 54.9 pg/mL | Mean of [VEGF] (MSC secretome; 0.3 μM, 24 h, MSC donor 318006): 547.2 pg/mL | Mean of [IL-1ra] (MSC secretome; 3 μM, 24 h, MSC donor 318006): 22.6 pg/mL | Mean of [LIF] (MSC secretome; 3 μM, 24 h, MSC donor 318006): 10.8 pg/mL | Mean of [MIF] (MSC secretome; 3 μM, 24 h, MSC donor 318006): 69.4 pg/mL | IL-8 level secreted by MSC (MSC secretome; 3 micromolar for 24 hours): downregulation | MCP-1 level secreted by MSC (MSC secretome; 3 micromolar for 24 hours): downregulation | SDF-1alpha level secreted by MSC (MSC secretome; 3 micromolar for 24 hours): upregulation | Fold change of analyte IL-6 upon pretreatment (vs. vehicle control) (MSC secretome; MSC secretome): 0.34 +/− 0.09 | Fold change of analyte MCP-1 upon pretreatment (vs. vehicle control) (MSC secretome; MSC secretome): 0.54 +/− 0.09
